{"source": "patent US20250177532A1", "about": "“TEMPERATURE-SENSITIVE HYDROGEL FOR CANCER TREATMENT CAPABLE OF PHOTOTHERMAL THERAPY AND PREPARATION METHOD THEREFOR” (KOREA NATIONAL UNIVERSITY OF TRANSPORTATION …, priority 2022, published 2025)", "tested_on": "4T1 cells", "assay": "Photothermal effect in vitro: cell viability by WST-1 assay with/without near-infrared irradiation", "conditions": "Triton X 0.1%", "description": "To evaluate photothermal effect in in vitro, cells were seeded (1×10^4 cells/well) in 96 well-plate and incubated for 12 h. […] Then, the well was irradiated with near-infrared light for 5 min and incubated again for 24 hours. Then, cell viability was measured using WST-1 assay."}
{"substance": "Triton X", "values": [{"measurement": "Cell viability (%)", "setting": "control of Table 1 (GNS experiment, near-infrared irradiation)", "value": 5.02, "unit": "%"}, {"measurement": "Cell viability (%)", "setting": "control of Table 2, NIR irradiated", "value": 10.58, "unit": "%"}, {"measurement": "Cell viability (%)", "setting": "control of Table 2, no NIR", "value": 10.23, "unit": "%"}]}
